Experimental findings from patent US6756382B2, “Amide substituted imidazoquinolines” (3M Innovative Properties Company, priority 1999, dated 2004) are described below.

Data set [1] relates to tumor necrosis factor (α). Briefly: Cytokine induction in human cells: tumor necrosis factor (α) secreted by PBMCs, ELISA. It is filed as cell-based. Particulars: PBMC, incubated 18 to 24 hours, TNF determined by ELISA, read-out: Lowest Effective Concentration (μM) Tumor Necrosis Factor. The method, boiled down:
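Human donor PBMCs at final 1.5-2×10^6 cells/mL in RPMI with 10% FBS incubated 18 to 24 h at 37° C. with serially diluted compound, DMSO at most 1% final. Supernatant TNF-α measured by ELISA; value is the lowest concentration inducing TNF.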
Background: In an ELISA, binding on a coated surface is turned into a signal by an enzyme label.

The subject of another data set is interferon (α). Briefly: Cytokine induction in human cells: interferon secreted by PBMCs, ELISA. It is filed as cell-based. Particulars: PBMC, incubated 18 to 24 hours, interferon determined by ELISA, read-out: Lowest Effective Concentration (μM) Interferon. The method, boiled down: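 Human donor PBMCs at 1.5-2×10^6 cells/mL final in RPMI with 10% FBS, exposed to serially diluted compound (≤1% DMSO) for 18–24 h at 37 °C, 5% CO2. Supernatant interferon (α) measured by ELISA; value is lowest concentration inducing interferon.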

With `CCCCc1nc2c(N)nc3ccccc3c2n1CCCCNC(=O)CCCCC1SCC2NC(=O)NC21` (stereo not drawn) [Example 24, N^1-[4-(4-Amino-2-butyl-1H-imidazo[4,5-c]quinolin-1-yl)butyl]-5-(2-oxoperhydrothieno[3,4-d]imidazol-4-yl)pentanamide], the melting point – broadly, the temperature, or range, at which the solid turns liquid – was 214 to 215 °C. For the same molecule, in data set [1], the minimal effective concentration came out at 3.33 µM. For the same molecule, the minimal effective concentration in the data set on interferon (α) turned out to be 0.12 µM.

In turn, `Nc1nc2ccccc2c2c1ncn2CCCCNC(=O)CCCCC1SCC2NC(=O)NC21` (stereo not drawn) [Example 25, N^1-[4-(4-Amino-1H-imidazo[4,5-c]quinolin-1-yl)butyl]-5-(2-oxoperhydrothieno[3,4-d]imidazol-4-yl)pentanamide] displayed a melting point of 104 to 106 °C. The minimal effective concentration in data set [1] was above 30 µM. The minimal effective concentration in the data set on interferon (α) was determined as 3.33 µM.

Consider `CCCCc1nc2c(N)nc3ccccc3c2n1CCNC(=O)CCCCC1SCC2NC(=N)NC21` (stereo not drawn) [Example 26, N^1-[2-(4-Amino-2-butyl-1H-imidazo[4,5-c]quinolin-1-yl)ethyl]-5-(2-iminoperhydrothieno[3,4-d]imidazol-4-yl)pentanamide], for which the melting point is 95 to 96 °C. In data set [1], the minimal effective concentration was 10 µM. Further, in the data set with interferon (α), the minimal effective concentration was determined as 0.37 µM.

`Nc1nc2ccccc2c2c1ncn2CCNC(=O)CCCCC1SCC2NC(=O)NC21` (stereo not drawn) [Example 27, N^1-[2-(4-Amino-1H-imidazo[4,5-c]quinolin-1-yl)ethyl]-5-(2-oxoperhydrothieno[3,4-d]imidazol-4-yl)pentanamide] showed a melting point of 169 °C. Moreover, the minimal effective concentration in data set [1] is above 30 µM. Further, the minimal effective concentration with interferon (α) was above 30 µM.

For the molecule `CCCCc1nc2c(N)nc3ccccc3c2n1CCNC(=O)CCCCC1SCC2NC(=O)NC21` (stereo not drawn) [Example 28, N^1-[2-(4-Amino-2-butyl-1H-imidazo[4,5-c]quinolin-1-yl)ethyl]-5-(2-oxoperhydrothieno[3,4-d]imidazol-4-yl)pentanamide], the melting point lay within 124 to 126 °C. Further, the minimal effective concentration in data set [1] was above 30 µM. The minimal effective concentration in the data set with interferon (α) was 0.12 µM.

In the case of `CCOc1ccc2ccccc2c1C(=O)NCCCCn1cnc2c(N)nc3ccccc3c21` [Example 31, N^1-[4-(4-Amino-1H-imidazo[4,5-c]quinolin-1-yl)butyl]-2-ethoxy-1-naphthamide], the melting point is 219 °C (dec.). Besides, the minimal effective concentration in data set [1] was above 30 µM. The minimal effective concentration in the data set on interferon (α) is 1.11 µM.

As for `N#Cc1ccc(C(=O)NCCCCn2cnc3c(N)nc4ccccc4c32)cc1` [Example 32, N^1-[4-(4-Amino-1H-imidazo[4,5-c]quinolin-1-yl)butyl]-4-cyanobenzamide], the melting point is 222.8 to 225.3 °C. The minimal effective concentration in data set [1] is above 30 µM. For the same molecule, the minimal effective concentration with interferon (α) was 3.33 µM.

For the molecule `N#Cc1cccc(C(=O)NCCCCn2cnc3c(N)nc4ccccc4c32)c1` [Example 33, N^1-[4-(4-Amino-1H-imidazo[4,5-c]quinolin-1-yl)butyl]-3-cyanobenzamide], the melting point was 200 to 201 °C (dec.). For the same molecule, the minimal effective concentration in data set [1] was above 30 µM. In the data set with interferon (α), the minimal effective concentration amounted to 0.37 µM.

As for `Nc1nc2ccccc2c2c1ncn2CCCCNC(=O)c1ccc(-c2ccccc2)cc1` [Example 34, N^1-[4-(4-Amino-1H-imidazo[4,5-c]quinolin-1-yl)butyl]-4-phenylbenzamide], the melting point was 215.4 °C (dec.). For the same molecule, the minimal effective concentration in data set [1] turned out to be 3.33 µM. For the same molecule, the minimal effective concentration in the data set with interferon (α) is above 30 µM.

As for `Nc1nc2ccccc2c2c1ncn2CCCCNC(=O)COc1ccccc1` [Example 35, N^1-[4-(4-Amino-1H-imidazo[4,5-c]quinolin-1-yl)butyl]-2-phenoxyacetamide], the melting point was 61.5 °C (dec.). Also, in data set [1], the minimal effective concentration was above 30 µM. For the same molecule, the minimal effective concentration in the data set with interferon (α) was found to be 1.11 µM.

The molecule `CCCCC(CC)C(=O)NCCCCn1cnc2c(N)nc3ccccc3c21` (stereo not drawn) [Example 36, N^1-[4-(4-Amino-1H-imidazo[4,5-c]quinolin-1-yl)butyl]-2-ethylhexanamide] returned a melting point of 163 to 164 °C. For the same molecule, the minimal effective concentration in data set [1] amounted to 10 µM. For the same molecule, in the data set on interferon (α), the minimal effective concentration was found to be 1.11 µM.

For `Nc1nc2ccccc2c2c1ncn2CCCCNC(=O)c1cccc(Oc2ccccc2)c1` [Example 39, N^1-[4-(4-Amino-1H-imidazo[4,5-c]quinolin-1-yl)butyl]-3-phenoxybenzamide], the melting point was 105 to 107 °C. In data set [1], the minimal effective concentration is above 30 µM. In addition, in the data set with interferon (α), the minimal effective concentration was determined as 3.33 µM.

`CC(Oc1ccccc1)C(=O)NCCCCn1cnc2c(N)nc3ccccc3c21` (stereo not drawn) [Example 41, N^1-[4-(4-Amino-1H-imidazo[4,5-c]quinolin-1-yl)butyl]-2-phenoxypropanamide] yielded a melting point of 85 to 87.5 °C. In addition, in data set [1], the minimal effective concentration is above 30 µM. Besides, the minimal effective concentration with interferon (α) is 1.11 µM.

Regarding `Nc1nc2ccccc2c2c1ncn2CCCCNC(=O)c1ccc2ccccc2c1` [Example 43, N^2-[4-(4-Amino-1H-imidazo[4,5-c]quinolin-1-yl)butyl]-2-naphthamide], the melting point is 257 °C (dec.). The minimal effective concentration in data set [1] is above 30 µM. Further, the minimal effective concentration with interferon (α) worked out at 0.12 µM.

With `COc1ccc(C(=O)NCCCCn2cnc3c(N)nc4ccccc4c32)c(OC)n1` [Example 44, N^3-[4-(4-Amino-1H-imidazo[4,5-c]quinolin-1-yl)butyl]-2,6-dimethoxynicotnamide], the melting point fell in the range of 175 to 177 °C. The minimal effective concentration in data set [1] is above 30 µM. For the same molecule, in the data set on interferon (α), the minimal effective concentration is 1.11 µM.

`Nc1nc2ccccc2c2c1ncn2CCCCNC(=O)c1cccc2cccnc12` [Example 45, N^8-[4-(4-Amino-1H-imidazo[4,5-c]quinolin-1-yl)butyl]-8-quinolinecarboxamide] came in with a melting point of 91 to 93 °C. For the same molecule, the minimal effective concentration in data set [1] is above 30 µM. Moreover, the minimal effective concentration in the data set with interferon (α) was determined as 3.33 µM.

The molecule `CC(C)Cc1ccc(C(C)C(=O)NCCCCn2cnc3c(N)nc4ccccc4c32)cc1` (stereo not drawn) [Example 46, N^1-[4-(4-Amino-1 H-imidazo[4,5-c]quinolin-1-yl)butyl]-2-(4-isobutylphenyl)propanamide] displayed a melting point of 172 to 173 °C. Also, in data set [1], the minimal effective concentration was found to be 10 µM. In addition, the minimal effective concentration in the data set on interferon (α) is above 30 µM.

In turn, `COCCc1nc2c(N)nc3ccccc3c2n1CCCCNC(=O)c1cc2ccccc2cn1` [Example 181, N-{4-[4-amino-2-(2-methoxyethyl)-1H-imidazo[4,5-c]quinolin-1-yl]butyl}isoquinoline-3-carboxamide] showed a melting point of 199 to 200 °C. In data set [1], the minimal effective concentration was 1.11 µM. In addition, in the data set with interferon (α), the minimal effective concentration worked out at 0.01 µM.

As to `COCCc1nc2c(N)nc3ccccc3c2n1CCCCNC(=O)c1cnc2ccccc2c1` [Example 182, N-{4-[4-amino-2-(2-methoxyethyl)-1H-imidazo[4,5-c]quinolin-1-yl]butyl}quinoline-3-carboxamide], the melting point lay in the range of 114 to 116 °C. For the same molecule, the minimal effective concentration in data set [1] stood at 0.01 µM. The minimal effective concentration in the data set on interferon (α) is 0.01 µM.

Regarding `COCCc1nc2c(N)nc3ccccc3c2n1CCCCNC(=O)c1cnc2ccccc2n1` [Example 183, N-{4-[4-amino-2-(2-methoxyethyl)-1H-imidazo [4,5-c]quinolin-1-yl]butyl}quinoxaline-2-carboxamide], the melting point was in the range of 85 to 87 °C. In addition, the minimal effective concentration in data set [1] came to 0.04 µM. In the data set with interferon (α), the minimal effective concentration is 0.01 µM.

`CCCCc1nc2c(N)nc3ccccc3c2n1CCCCCCCCNC(=O)c1ccccc1` [Example 186, N-[8-(4-amino-2-butyl-1H-imidazo[4,5-c]quinolin-1-yl)octyl]benzamide] came in with a melting point of 149.5 to 151.3 °C. The minimal effective concentration in data set [1] came to 0.12 µM. The minimal effective concentration in the data set on interferon (α) turned out to be 0.04 µM.

Consider `COCCc1nc2c(N)nc3ccccc3c2n1CCCCCCCCNC(=O)c1ccccc1` [Example 187, N-{8-[4-amino-2-(2-methoxyethyl)-1H-imidazo[4,5-c]quinolin-1-yl]octyl}benzamide], for which the melting point was 133.4 to 137.5 °C. The minimal effective concentration in data set [1] was 0.01 µM. Further, the minimal effective concentration with interferon (α) was found to be 0.01 µM.

In the case of `CCCCc1nc2c(N)nc3ccccc3c2n1CCCNC(=O)c1ccccc1` [Example 189, N-[3-(4-amino-2-butyl-1H-imidazo[4,5-c]quinolin-1-yl)propyl]benzamide], the melting point was in the range of 189.4 to 190 °C. The minimal effective concentration in data set [1] came out at 0.12 µM. For the same molecule, in the data set with interferon (α), the minimal effective concentration was determined as 0.04 µM.

For the molecule `COCCc1nc2c(N)nc3ccccc3c2n1CC(C)(C)CNC(=O)c1ccccc1` [Example 190, N-{3-[4-amino-2-(2-methoxyethyl)-1H-imidazo[4,5-c]quinolin-1-yl]-2,2-dimethylpropyl}benzamide], the melting point fell in the range of 103 to 125 °C. Further, in data set [1], the minimal effective concentration amounted to 0.01 µM. Further, the minimal effective concentration in the data set with interferon (α) amounted to 0.01 µM.

On to `COCCc1nc2c(N)nc3ccccc3c2n1CCCNC(=O)c1cc2ccccc2cn1` [Example 192, N-{3-[4-amino-2-(2-methoxyethyl)-1H-imidazo[4,5-c]quinolin-1-yl]propyl}isoquinoline-3-carboxamide], for which the melting point lay in the range of 198 to 198.5 °C. In addition, the minimal effective concentration in data set [1] amounted to 0.37 µM. Further, in the data set with interferon (α), the minimal effective concentration was determined as 0.12 µM.
